One assay concerns the target p70S6K (Homo sapiens, UniProt P23443). The experiment in a line: Luciferase-coupled chemiluminescence kinase assay (ATP consumption). The assay is classed as biochemical. The conditions noted are these: Table 1; class symbols per key. In short, it runs like this:
(§1)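 Enzyme at 2.5-5 nM was preincubated 30 min at room temperature with compound in Tris pH 7.5, MgCl2, TX-100, DTT, then reacted with ATP for 3 h at ambient temperature. Remaining ATP was quantified by luciferase-luciferin chemiluminescence, with consumption kept at 25-60%; […].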

For a further assay, the target named is AktK (Homo sapiens, UniProt P31749). The description is as above. As to conditions: Table 1; class symbols per key; read-out: AKT-1 IC50. The assay is classed as biochemical. The method, boiled down: as §1
AktK, sequence (P31749 whole entry): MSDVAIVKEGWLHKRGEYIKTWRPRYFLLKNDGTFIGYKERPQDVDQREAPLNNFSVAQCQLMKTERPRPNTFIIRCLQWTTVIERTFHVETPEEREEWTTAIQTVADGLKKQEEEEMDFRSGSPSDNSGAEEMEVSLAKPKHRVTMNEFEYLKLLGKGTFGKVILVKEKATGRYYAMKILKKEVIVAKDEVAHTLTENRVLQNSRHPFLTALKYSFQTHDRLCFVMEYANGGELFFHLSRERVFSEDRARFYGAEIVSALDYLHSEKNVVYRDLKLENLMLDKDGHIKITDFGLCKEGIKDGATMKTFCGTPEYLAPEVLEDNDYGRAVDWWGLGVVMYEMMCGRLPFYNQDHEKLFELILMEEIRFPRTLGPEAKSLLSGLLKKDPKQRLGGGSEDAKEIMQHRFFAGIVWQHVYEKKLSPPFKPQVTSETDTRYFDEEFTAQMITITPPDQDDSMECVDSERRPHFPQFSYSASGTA

Molecules are shown by their SMILES.

The text below walks through data of US8076338B2, “Kinase modulators and methods of use” (Exelixis, Inc., priority 2004, dated 2011).

p70S6K, sequence (P23443 whole entry): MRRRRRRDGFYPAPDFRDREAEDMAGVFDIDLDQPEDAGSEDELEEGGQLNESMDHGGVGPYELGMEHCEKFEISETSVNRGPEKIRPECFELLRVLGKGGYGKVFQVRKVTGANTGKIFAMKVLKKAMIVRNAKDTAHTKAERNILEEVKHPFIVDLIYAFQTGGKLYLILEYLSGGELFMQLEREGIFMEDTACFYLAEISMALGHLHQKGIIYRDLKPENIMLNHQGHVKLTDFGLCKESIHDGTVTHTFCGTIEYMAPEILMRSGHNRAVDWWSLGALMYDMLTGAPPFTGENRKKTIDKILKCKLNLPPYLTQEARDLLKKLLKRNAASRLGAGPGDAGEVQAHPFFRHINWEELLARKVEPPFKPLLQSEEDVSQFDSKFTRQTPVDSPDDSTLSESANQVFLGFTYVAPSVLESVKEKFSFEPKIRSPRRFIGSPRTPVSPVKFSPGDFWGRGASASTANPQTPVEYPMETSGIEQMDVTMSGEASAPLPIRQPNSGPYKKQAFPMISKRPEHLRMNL

Turning to `Clc1cc(Cl)cc(N2CCN(c3ncnc4[nH]nc(Br)c34)CC2)c1` [Entry 128, 3-bromo-4-[4-(3,5-dichlorophenyl)piperazin-1-yl]-1H-pyrazolo[3,4-d]pyrimidine], the IC50 (as a rule, the concentration needed to halve the response being measured) was 100 to 1000 nM against p70S6K and at least 10000 nM on AktK.

Consider `Fc1cc(NCCN2CCCC2)c(Cl)c(N2CCN(c3ncnc4[nH]nc(Br)c34)CC2)c1` [Entry 129, 3-[4-(3-bromo-1H-pyrazolo[3,4-d]pyrimidin-4-yl)piperazin-1-yl]-2-chloro-5-fluoro-N-(2-pyrrolidin-1-ylethyl)aniline], for which the half-maximal inhibitory concentration (IC50) on p70S6K was below 100 nM; at AktK it was 100 to 1000 nM.

As for `CCc1n[nH]c2ncnc(N3CCN(c4cc(F)cc(NCCN5CCCC5)c4Cl)CC3)c12` [Entry 130, 2-chloro-3-[4-(3-ethyl-1H-pyrazolo[3,4-d]pyrimidin-4-yl)piperazin-1-yl]-5-fluoro-N-(2-pyrrolidin-1-ylethyl)aniline], the IC50 at p70S6K is below 100 nM; on AktK it was 1000 to 10000 nM.

Regarding `Fc1ccc(F)c(N2CCN(c3ncnc4[nH]nc(Br)c34)CC2)c1` [Entry 131, 3-bromo-4-[4-(2,5-difluorophenyl)piperazin-1-yl]-1H-pyrazolo[3,4-d]pyrimidine], the half-maximal inhibitory concentration (IC50) is below 100 nM against p70S6K and at least 10000 nM at AktK.

As for `CCc1n[nH]c2ncnc(N3CCN(c4cc(F)ccc4F)CC3)c12` [Entry 132, 4-[4-(2,5-difluorophenyl)piperazin-1-yl]-3-ethyl-1H-pyrazolo[3,4-d]pyrimidine], the results for the IC50 at p70S6K and on AktK were 100 to 1000 nM and at least 10000 nM, respectively.

Consider `COc1nccnc1N1CCN(c2ncnc3[nH]nc(Br)c23)CC1` [Entry 133, 3-bromo-4-{4-[3-(methyloxy)pyrazin-2-yl]pipera-zin-1-yl}-1H-pyrazolo[3,4-d]pyrimidine], for which the concentration for half-maximal inhibition (IC50) at p70S6K was 100 to 1000 nM; on AktK, at least 10000 nM.

For the molecule `Clc1cccc(N2CCN(c3ncnc4[nH]nc(Br)c34)CC2)c1` [Entry 134, 3-bromo-4-[4-(3-chlorophenyl)piperazin-1-yl]-1H-pyrazolo[3,4-d]pyrimidine], the IC50 on p70S6K was below 100 nM; on AktK, at least 10000 nM.

`FC(F)(F)c1cccnc1N1CCN(c2ncnc3[nH]nc(Br)c23)CC1` [Entry 135, 3-bromo-4-{4-[3-(trifluoromethyl)pyridin-2-yl]piperazin-1-yl}-1H-pyrazolo[3,4-d]pyrimidine]: the IC50 against p70S6K was 100 to 1000 nM; at AktK it was at least 10000 nM.

With `FC(F)(F)c1cnc(N2CCN(c3ncnc4[nH]nc(Br)c34)CC2)c(Cl)c1` [Entry 136, 3-bromo-4-{4-[3-chloro-5-(trifluoromethyl)pyridin-2-yl]piperazin-1-yl}-1H-pyrazolo[3,4-d]pyrimidine], the IC50 against p70S6K was 1000 to 10000 nM; on AktK it was at least 10000 nM.

With `Cc1c(OCCN2CCCC2)cc(Cl)cc1N1CCN(c2ncnc3[nH]nc(C(C)C)c23)CC1` [Entry 137, 4-(4-{5-chloro-2-methyl-3-[(2-pyrrolidin-1-ylethyl)oxy]phenyl}piperazin-1-yl)-3-(1-methylethyl)-1H-pyrazolo[3,4-d]pyrimidine], the IC50 at p70S6K was below 100 nM; on AktK, 1000 to 10000 nM.

Regarding `Cc1c(NCCN2CCCC2)cc(Cl)cc1N1CCN(c2ncnc3[nH]nc(C(C)C)c23)CC1` [Entry 138, 5-chloro-2-methyl-3-{4-[3-(1-methylethyl)-1H-pyrazolo[3,4-d]pyrimidin-4-yl]piperazin-1-yl}-N-(2-pyrrolidin-1-ylethyl)aniline], the IC50 was below 100 nM on p70S6K and 1000 to 10000 nM at AktK.

For `CCNC(=O)COc1cccc(N2CCN(c3ncnc4[nH]nc(Br)c34)CC2)c1` [Entry 139, 2-({3-[4-(3-bromo-1H-pyrazolo[3,4-d]pyrimidin-4-yl)piperazin-1-yl]phenyl}oxy)-N-ethylacetamide], the figures for the half-inhibitory concentration (IC50) against p70S6K and on AktK were below 100 nM and 1000 to 10000 nM, respectively.

As for `Cc1cccc(COc2cccc(N3CCN(c4ncnc5[nH]nc(Br)c45)CC3)c2)c1` [Entry 141, 3-bromo-4-[4-(3-{[(3-methylphenyl)methyl]oxy}phenyl)piperazin-1-yl]-1H-pyrazolo[3,4-d]pyrimidine], the IC50 against p70S6K is 100 to 1000 nM; at AktK, at least 10000 nM.

Regarding `Brc1n[nH]c2ncnc(N3CCN(c4cccc(OCCN5CCCCC5)c4)CC3)c12` [Entry 142, 3-bromo-4-(4-{3-[(2-piperidin-1-ylethyl)oxy]phenyl}piperazin-1-yl)-1H-pyrazolo[3,4-d]pyrimidine], the IC50 against p70S6K was in the range of 100 to 1000 nM; at AktK, 1000 to 10000 nM.

On to `Brc1n[nH]c2ncnc(N3CCN(c4nccc(-c5ccco5)n4)CC3)c12` [Entry 143, 3-bromo-4-[4-(4-furan-2-ylpyrimidin-2-yl)piperazin-1-yl]-1H-pyrazolo[3,4-d]pyrimidine], for which the values for the IC50 at p70S6K and at AktK were 100 to 1000 nM and at least 10000 nM, respectively.

Consider `O=C1COc2ccc(-c3ccnc(N4CCN(c5ncnc6[nH]nc(Br)c56)CC4)n3)cc2N1` [Entry 144, 6-{2-[4-(3-bromo-1H-pyrazolo[3,4-d]pyrimidin-4-yl)piperazin-1-yl]pyrimidin-4-yl}-2H-1,4-benzoxazin-3(4H)-one], for which the IC50 on p70S6K and on AktK was 1000 to 10000 nM throughout.

As to `CCc1n[nH]c2ncnc(N3CCN(c4cccc(OC)c4C)CC3)c12` [Entry 145, 3-ethyl-4-{4-[2-methyl-3-(methyloxy)phenyl]piper-azin-1-yl}-1H-pyrazolo[3,4-d]pyrimidine], the IC50 against p70S6K was below 100 nM; at AktK it was at least 10000 nM.

For `CCc1n[nH]c2ncnc(N3CCN(c4cc(Cl)cc(NCCN(C)C(C)C)c4C)CC3)c12` [Entry 146, N′-{5-chloro-3-[4-(3-ethyl-1H-pyrazolo[3,4-d]pyrimidin-4-yl)piperazin-1-yl]-2-methylphenyl}-N-methyl-N-(1-methylethyl)ethane-1,2-diamine], the half-inhibitory concentration (IC50) is below 100 nM at p70S6K and 100 to 1000 nM at AktK.

Turning to `CCc1n[nH]c2ncnc(N3CCN(c4cc(Cl)cc(NCCN(C)CC)c4C)CC3)c12` [Entry 147, N′-{5-chloro-3-[4-(3-ethyl-1H-pyrazolo[3,4-d]pyrimidin-4-yl)piperazin-1-yl]-2-methylphenyl}-N-ethyl-N-methylethane-1,2-diamine], the values for the IC50 against p70S6K and at AktK were below 100 nM and 100 to 1000 nM, respectively.

Consider `Cc1c(NCCN(C)C)cc(Cl)cc1N1CCN(c2ncnc3[nH]nc(Br)c23)CC1` [Entry 148, N′-{3-[4-(3-bromo-1H-pyrazolo[3,4-d]pyrimidin-4-yl)piperazin-1-yl]-5-chloro-2-methylphenyl}-N,N-dimethylethane-1,2-diamine], for which the IC50 against p70S6K and on AktK was below 100 nM throughout.

As to `CCN(CC)CCCOc1nc(Cl)nc(N2CCN(c3ncnc4[nH]nc(Br)c34)CC2)c1C` [Entry 149, 3-({6-[4-(3-bromo-1H-pyrazolo[3,4-d]pyrimidin-4-yl)piperazin-1-yl]-2-chloro-5-methylpyrimidin-4-yl}oxy)-N,N-diethylpropan-1-amine], the IC50 at p70S6K was 100 to 1000 nM; at AktK it was 1000 to 10000 nM.

With `Clc1cccc(N2CCN(c3ncnc4[nH]nc(Br)c34)CC2)c1Cl` [Entry 150, 3-bromo-4-[4-(2,3-dichlorophenyl)piperazin-1-yl]-1H-pyrazolo[3,4-d]pyrimidine], the results for the IC50 on p70S6K and at AktK were 100 to 1000 nM and at least 10000 nM, respectively.

Turning to `FC(F)(F)c1ccccc1N1CCN(c2ncnc3[nH]nc(Br)c23)CC1` [Entry 151, 3-bromo-4-{4-[2-(trifluoromethyl)phenyl]piperazin-1-yl}-1H-pyrazolo[3,4-d]pyrimidine], the 50% inhibitory concentration (IC50) was 100 to 1000 nM against p70S6K and at least 10000 nM at AktK.
